Experimental data published in article PMC5218480 (PLoS ONE, 2017).

System: MV-4-11 cells
Assay: Gene expression microarray analysis (Affymetrix PrimeView) and GSEA
Type: cell-based, human
Parameters: RFU PODN (11730768_x_at) / Fold change /veh PODN (11730768_x_at) / RFU LINC00158 (11744669_a_at) / Fold change /veh LINC00158 (11744669_a_at) / RFU DUSP10 (11751237_a_at) / Fold change /veh DUSP10 (11751237_a_at) / RFU ID3 (11757404_x_at) / Fold change /veh ID3 (11757404_x_at) / RFU PLEKHG5 (11737974_s_at) / Fold change /veh PLEKHG5 (11737974_s_at) / RFU LRRC4B (11730491_at) / Fold change /veh LRRC4B (11730491_at) / RFU GIMAP4 (11747438_a_at) / Fold change /veh GIMAP4 (11747438_a_at) / RFU KRT8 (11758183_x_at) / Fold change /veh KRT8 (11758183_x_at) / RFU CNN1 (11734310_a_at) / Fold change /veh CNN1 (11734310_a_at) / RFU VPS37D (11726825_at) / Fold change /veh VPS37D (11726825_at) / RFU C10orf10 (11716522_x_at) / Fold change /veh C10orf10 (11716522_x_at) / RFU KIR2DL2 /// KIR2DL4 /// KIR2DL5A /// KIR2DL5B /// KIR2DS1 /// KIR2DS2 /// KIR2DS3 /// KIR2DS4 /// KIR3DL3 /// KIR3DL3 /// KIR3DS1 (11738374_at) / Fold change /veh KIR2DL2 /// KIR2DL4 /// KIR2DL5A /// KIR2DL5B /// KIR2DS1 /// KIR2DS2 /// KIR2DS3 /// KIR2DS4 /// KIR3DL3 /// KIR3DL3 /// KIR3DS1 (11738374_at) / RFU C1QL1 (11718748_at) / Fold change /veh C1QL1 (11718748_at) / RFU TMPRSS4 (11747572_a_at) / Fold change /veh TMPRSS4 (11747572_a_at) / RFU HAMP (11756126_x_at) / Fold change /veh HAMP (11756126_x_at) / RFU RNFT2 (11725882_a_at) / Fold change /veh RNFT2 (11725882_a_at) / RFU NR4A2 (11747474_a_at) / Fold change /veh NR4A2 (11747474_a_at) / RFU ABCC12 (11746883_a_at) / Fold change /veh ABCC12 (11746883_a_at) / RFU TMEM136 (11760407_x_at) / Fold change /veh TMEM136 (11760407_x_at) / RFU CLDN22 /// WWC2 (11732394_at) / Fold change /veh CLDN22 /// WWC2 (11732394_at) / RFU HLA-DPB1 (11760878_x_at) / Fold change /veh HLA-DPB1 (11760878_x_at) / RFU SPINT1 (11716480_a_at) / Fold change /veh SPINT1 (11716480_a_at) / RFU GAP43 (11754022_s_at) / Fold change /veh GAP43 (11754022_s_at) / RFU A4GNT (11735810_at) / Fold change /veh A4GNT (11735810_at) / RFU PRB3 (11715151_x_at) / Fold change /veh PRB3 (11715151_x_at) / RFU TUBB4B (11761932_at) / Fold change /veh TUBB4B (11761932_at) / RFU CAPN14 (11732068_a_at) / Fold change /veh CAPN14 (11732068_a_at) / RFU TMCC2 (11721928_a_at) / Fold change /veh TMCC2 (11721928_a_at) / RFU IRGQ (11745062_a_at) / Fold change /veh IRGQ (11745062_a_at) / RFU FAM174B (11720279_a_at) / Fold change /veh FAM174B (11720279_a_at) / RFU TMPRSS4 (11748680_a_at) / Fold change /veh TMPRSS4 (11748680_a_at) / RFU FAM212B (11763350_a_at) / Fold change /veh FAM212B (11763350_a_at) / RFU PLEKHG5 (11743358_a_at) / Fold change /veh PLEKHG5 (11743358_a_at) / RFU ZSCAN30 (11745921_a_at) / Fold change /veh ZSCAN30 (11745921_a_at) / RFU CMKLR1 (11741424_a_at) / Fold change /veh CMKLR1 (11741424_a_at) / RFU LOC101060620 /// MAPK8IP1 (11723275_at) / Fold change /veh LOC101060620 /// MAPK8IP1 (11723275_at) / RFU SPTSSB (11747773_x_at) / Fold change /veh SPTSSB (11747773_x_at) / RFU PRSS12 (11739890_at) / Fold change /veh PRSS12 (11739890_at) / RFU BIN1 (11741810_x_at) / Fold change /veh BIN1 (11741810_x_at) / RFU WNT11 (11732464_a_at) / Fold change /veh WNT11 (11732464_a_at) / RFU C10orf10 (11716521_a_at) / Fold change /veh C10orf10 (11716521_a_at) / RFU C5orf56 (11738089_at) / Fold change /veh C5orf56 (11738089_at) / RFU CYB561 (11721691_x_at) / Fold change /veh CYB561 (11721691_x_at) / RFU ANKRD19P (11752326_a_at) / Fold change /veh ANKRD19P (11752326_a_at) / RFU OR2T12 /// OR2T33 /// OR2T8 (11738714_s_at) / Fold change /veh OR2T12 /// OR2T33 /// OR2T8 (11738714_s_at) / RFU VCAN (11748164_a_at) / Fold change /veh VCAN (11748164_a_at) / RFU JSRP1 (11732532_at) / Fold change /veh JSRP1 (11732532_at) / RFU KRTAP10-11 (11738290_x_at) / Fold change /veh KRTAP10-11 (11738290_x_at) / RFU MYO3A (11730013_a_at) / Fold change /veh MYO3A (11730013_a_at) / RFU EBF3 (11725865_a_at) / Fold change /veh EBF3 (11725865_a_at) / RFU CAMK2N1 (11719241_x_at) / Fold change /veh CAMK2N1 (11719241_x_at) / RFU C5orf56 (11738088_a_at) / Fold change /veh C5orf56 (11738088_a_at) / RFU OLFML3 (11715873_a_at) / Fold change /veh OLFML3 (11715873_a_at) / RFU LOC100653217 /// NTM (11731650_a_at) / Fold change /veh LOC100653217 /// NTM (11731650_a_at) / RFU MAPK11 (11762145_a_at) / Fold change /veh MAPK11 (11762145_a_at) / RFU FIZ1 (11724087_x_at) / Fold change /veh FIZ1 (11724087_x_at) / RFU OASL (11726364_x_at) / Fold change /veh OASL (11726364_x_at) / RFU SOX15 (11748057_x_at) / Fold change /veh SOX15 (11748057_x_at) / RFU CD79A (11719716_a_at) / Fold change /veh CD79A (11719716_a_at) / RFU HIST1H1D (11736915_at) / Fold change /veh HIST1H1D (11736915_at) / RFU CASKIN2 (11723855_a_at) / Fold change /veh CASKIN2 (11723855_a_at) / RFU LOC730098 (11760151_x_at) / Fold change /veh LOC730098 (11760151_x_at) / RFU OR4N2 (11742367_at) / Fold change /veh OR4N2 (11742367_at) / RFU PRRT2 (11749266_a_at) / Fold change /veh PRRT2 (11749266_a_at) / RFU SNX32 (11753110_a_at) / Fold change /veh SNX32 (11753110_a_at) / RFU CDHR5 (11726645_a_at) / Fold change /veh CDHR5 (11726645_a_at) / RFU RCAN1 (11760418_a_at) / Fold change /veh RCAN1 (11760418_a_at) / RFU FAM167A (11723789_a_at) / Fold change /veh FAM167A (11723789_a_at) / RFU FAM26E (11764081_at) / Fold change /veh FAM26E (11764081_at) / RFU ISYNA1 (11749810_s_at) / Fold change /veh ISYNA1 (11749810_s_at) / RFU ACY1 (11761880_at) / Fold change /veh ACY1 (11761880_at) / RFU 11764098_at / Fold change /veh 11764098_at / RFU SAMD14 (11745864_x_at) / Fold change /veh SAMD14 (11745864_x_at) / RFU NPB (11741838_a_at) / Fold change /veh NPB (11741838_a_at) / RFU TMPRSS6 (11731388_a_at) / Fold change /veh TMPRSS6 (11731388_a_at) / RFU KRTAP10-2 (11738614_at) / Fold change /veh KRTAP10-2 (11738614_at) / RFU ARHGAP8 /// PRR5-ARHGAP8 (11727945_x_at) / Fold change /veh ARHGAP8 /// PRR5-ARHGAP8 (11727945_x_at) / RFU KRTAP5-7 /// NADSYN1 (11734609_at) / Fold change /veh KRTAP5-7 /// NADSYN1 (11734609_at) / RFU RASL12 (11751679_a_at) / Fold change /veh RASL12 (11751679_a_at) / RFU CDKN2B (11736163_a_at) / Fold change /veh CDKN2B (11736163_a_at) / RFU PRF1 (11729649_at) / Fold change /veh PRF1 (11729649_at) / RFU, ZNF638 /// ZNF638-IT1 / Fold change vs veh, ZNF638 /// ZNF638-IT1 / RFU, PANK3 / Fold change vs veh, PANK3 / RFU, SH3YL1 / Fold change vs veh, SH3YL1 / RFU, ZEB2 / Fold change vs veh, ZEB2 / RFU, NRIP1 / Fold change vs veh, NRIP1 / RFU, PTTG1IP / Fold change vs veh, PTTG1IP / RFU, CAPN2 / Fold change vs veh, CAPN2 / RFU, MED14 / Fold change vs veh, MED14 / RFU, SNORA58 / Fold change vs veh, SNORA58 / RFU, C1orf63 / Fold change vs veh, C1orf63 / RFU, LRRFIP1 / Fold change vs veh, LRRFIP1 / RFU, NDUFAF7 / Fold change vs veh, NDUFAF7 / RFU, SLC12A2 / Fold change vs veh, SLC12A2 / RFU, IBTK / Fold change vs veh, IBTK / RFU, ESF1 / Fold change vs veh, ESF1 / Fold change vs veh, TMEM50B / RFU, TAOK1 / Fold change vs veh, TAOK1 / RFU, ACBD3 / Fold change vs veh, ACBD3 / RFU, TMA16 / Fold change vs veh, TMA16 / RFU, RWDD3 / Fold change vs veh, RWDD3 / RFU, BCAT1 / Fold change vs veh, BCAT1 / RFU, EDEM3 / Fold change vs veh, EDEM3 / RFU, TMEM33 / Fold change vs veh, TMEM33 / RFU, WDR75 / Fold change vs veh, WDR75 / RFU, AHCTF1 / Fold change vs veh, AHCTF1 / RFU, TFRC / Fold change vs veh, TFRC / RFU, ZDHHC17 / Fold change vs veh, ZDHHC17 / RFU, NOM1 / Fold change vs veh, NOM1 / RFU, ARL8B / Fold change vs veh, ARL8B / RFU, ZBTB11 / Fold change vs veh, ZBTB11 / RFU, TAMM41 / Fold change vs veh, TAMM41 / RFU, KIAA1704 /// LOC100996395 / Fold change vs veh, KIAA1704 /// LOC100996395 / RFU, ING1 / Fold change vs veh, ING1 / RFU, TRMT61B / Fold change vs veh, TRMT61B / RFU, FUBP3 / Fold change vs veh, FUBP3 / RFU, TP53 / Fold change vs veh, TP53 / RFU, TNKS2 / Fold change vs veh, TNKS2 / RFU, ZFP14 / Fold change vs veh, ZFP14 / RFU, ACTR2 / Fold change vs veh, ACTR2 / RFU, PPP3R1 / Fold change vs veh, PPP3R1 / RFU, PIK3R1 / Fold change vs veh, PIK3R1 / RFU, HNRNPA1 / Fold change vs veh, HNRNPA1 / RFU, RNF170 / Fold change vs veh, RNF170 / RFU, ZNF28 / Fold change vs veh, ZNF28 / RFU, RNGTT / Fold change vs veh, RNGTT / RFU, OGT / Fold change vs veh, OGT / RFU, BRD1 / Fold change vs veh, BRD1 / RFU, MARS / Fold change vs veh, MARS / RFU, ZNF655 / Fold change vs veh, ZNF655 / RFU, FAHD1 / Fold change vs veh, FAHD1 / RFU, BDP1 / Fold change vs veh, BDP1 / RFU, LRRCC1 / Fold change vs veh, LRRCC1 / RFU, ARID1A / Fold change vs veh, ARID1A / RFU, ZNF146 / Fold change vs veh, ZNF146 / RFU, ZNF330 / Fold change vs veh, ZNF330 / RFU, GPN3 / Fold change vs veh, GPN3 / RFU, C9orf123 / Fold change vs veh, C9orf123 / RFU, N4BP2L2 / Fold change vs veh, N4BP2L2 / RFU, ARFIP1 / Fold change vs veh, ARFIP1 / RFU, FAM179B / Fold change vs veh, FAM179B / RFU, BCL10 / Fold change vs veh, BCL10 / RFU, UHRF1BP1L / Fold change vs veh, UHRF1BP1L / RFU, BET1 / Fold change vs veh, BET1 / RFU, CNOT2 / Fold change vs veh, CNOT2 / RFU, ZNF268 / Fold change vs veh, ZNF268 / Fold change vs veh, ZNF507 / RFU, DGCR2 / Fold change vs veh, DGCR2 / RFU, WDSUB1 / Fold change vs veh, WDSUB1 / Fold change vs veh, HSP90B1 /// MIR3652 / RFU, ADSS / Fold change vs veh, ADSS / RFU, GK / Fold change vs veh, GK / RFU, ZNF148 / Fold change vs veh, ZNF148 / RFU, TAF9 / Fold change vs veh, TAF9 / RFU, SLC1A5 / Fold change vs veh, SLC1A5 / RFU, SLMO2 / Fold change vs veh, SLMO2 / RFU, ABCC4 / Fold change vs veh, ABCC4 / RFU, LOC101060439 /// RAP1B / Fold change vs veh, LOC101060439 /// RAP1B / RFU, RFX7 / Fold change vs veh, RFX7 / RFU, GTPBP10 / Fold change vs veh, GTPBP10 / RFU, CNEP1R1 / Fold change vs veh, CNEP1R1 / RFU, BIVM-ERCC5 /// ERCC5 / Fold change vs veh, BIVM-ERCC5 /// ERCC5 / RFU, ILF3 / Fold change vs veh, ILF3 / RFU 11762660_at / Fold change /veh 11762660_at / RFU VCAN (11757783_s_at) / Fold change /veh VCAN (11757783_s_at) / RFU DDX43 (11728927_at) / Fold change /veh DDX43 (11728927_at) / RFU KRT8 (11758188_x_at) / Fold change /veh KRT8 (11758188_x_at) / RFU NKD1 (11759106_at) / Fold change /veh NKD1 (11759106_at) / RFU SRD5A1 (11742802_a_at) / Fold change /veh SRD5A1 (11742802_a_at) / RFU TPSAB1 /// TPSB2 (11721975_s_at) / Fold change /veh TPSAB1 /// TPSB2 (11721975_s_at) / RFU GSTM3 (11746129_a_at) / Fold change /veh GSTM3 (11746129_a_at) / RFU IL23R (11737362_x_at) / Fold change /veh IL23R (11737362_x_at) / RFU TMEM51 (11727254_a_at) / Fold change /veh TMEM51 (11727254_a_at) / RFU PIWIL2 (11732686_x_at) / Fold change /veh PIWIL2 (11732686_x_at) / RFU ORM1 (11744905_x_at) / Fold change /veh ORM1 (11744905_x_at) / RFU CCDC152 (11743942_at) / Fold change /veh CCDC152 (11743942_at) / RFU ECM1 (11717891_a_at) / Fold change /veh ECM1 (11717891_a_at) / RFU IL23R (11748794_a_at) / Fold change /veh IL23R (11748794_a_at) / RFU TNFAIP8L3 (11732012_x_at) / Fold change /veh TNFAIP8L3 (11732012_x_at) / RFU MBOAT4 (11741988_at) / Fold change /veh MBOAT4 (11741988_at) / RFU 11764193_at / Fold change /veh 11764193_at / RFU TMEM53 (11763286_at) / Fold change /veh TMEM53 (11763286_at) / RFU MAGEB2 (11727129_at) / Fold change /veh MAGEB2 (11727129_at) / RFU TMEM200A (11744735_a_at) / Fold change /veh TMEM200A (11744735_a_at) / RFU CCDC152 (11751479_a_at) / Fold change /veh CCDC152 (11751479_a_at) / RFU FAM211A (11726209_a_at) / Fold change /veh FAM211A (11726209_a_at) / RFU RGS16 (11746705_a_at) / Fold change /veh RGS16 (11746705_a_at) / RFU VCAN (11755009_s_at) / Fold change /veh VCAN (11755009_s_at) / RFU RHOB (11743442_s_at) / Fold change /veh RHOB (11743442_s_at) / RFU RGS16 (11720943_a_at) / Fold change /veh RGS16 (11720943_a_at) / RFU RGS16 (11720944_at) / Fold change /veh RGS16 (11720944_at) / RFU, VPS4B / Fold change vs veh, VPS4B / RFU, CREB1 / Fold change vs veh, CREB1 / RFU, DNAJC13 / Fold change vs veh, DNAJC13 / RFU, GNAQ / Fold change vs veh, GNAQ / RFU, CDK5R1 / Fold change vs veh, CDK5R1 / RFU, ZRANB3 / Fold change vs veh, ZRANB3 / RFU, CUL4A / Fold change vs veh, CUL4A / RFU, CCNY / Fold change vs veh, CCNY / RFU, UFL1 / Fold change vs veh, UFL1 / RFU, COG3 / Fold change vs veh, COG3 / RFU, DIAPH2 / Fold change vs veh, DIAPH2 / RFU, SKA2 / Fold change vs veh, SKA2 / RFU, AFF3 / Fold change vs veh, AFF3 / RFU, LMF1 / Fold change vs veh, LMF1 / RFU, IPO11 / Fold change vs veh, IPO11 / RFU, DFFB / Fold change vs veh, DFFB / RFU, FOXP1 / Fold change vs veh, FOXP1 / RFU, CARD8 / Fold change vs veh, CARD8 / RFU, STRN3 / Fold change vs veh, STRN3 / RFU, ADK / Fold change vs veh, ADK / RFU, RASSF2 / Fold change vs veh, RASSF2 / RFU, WIPF1 / Fold change vs veh, WIPF1 / RFU, LARP1B / Fold change vs veh, LARP1B / RFU, RASA1 / Fold change vs veh, RASA1 / RFU, RB1 / Fold change vs veh, RB1 / RFU, PPFIA1 / Fold change vs veh, PPFIA1 / RFU, MAT2A / Fold change vs veh, MAT2A / RFU, CCT5 / Fold change vs veh, CCT5 / RFU, WDR92 / Fold change vs veh, WDR92 / RFU, CUX1 / Fold change vs veh, CUX1 / RFU, TTC7A / Fold change vs veh, TTC7A / RFU, TMEM135 / Fold change vs veh, TMEM135 / RFU, DEPTOR / Fold change vs veh, DEPTOR / RFU, CPM / Fold change vs veh, CPM / RFU, DNAJB6 / Fold change vs veh, DNAJB6 / RFU, CACNA2D3 / Fold change vs veh, CACNA2D3 / RFU, DTX4 / Fold change vs veh, DTX4 / RFU, TFCP2 / Fold change vs veh, TFCP2 / RFU, GMCL1 /// GMCL1P1 / Fold change vs veh, GMCL1 /// GMCL1P1 / RFU, AEBP2 / Fold change vs veh, AEBP2 / RFU, SNHG1 /// SNORD22 /// SNORD25 /// SNORD26 /// SNORD27 /// SNORD28 /// SNORD29 /// SNORD31 / Fold change vs veh, SNHG1 /// SNORD22 /// SNORD25 /// SNORD26 /// SNORD27 /// SNORD28 /// SNORD29 /// SNORD31 / Fold change (Aza/veh), C12orf56 (ProbeSet 11735607_a_at) / Fold change (ACY-1035/veh), C12orf56 (ProbeSet 11735607_a_at) / Fold change (Aza/veh), FGFR1OP (ProbeSet 11751329_s_at) / Fold change (ACY-1035/veh), FGFR1OP (ProbeSet 11751329_s_at) / Fold change (Aza/veh), VPS36 (ProbeSet 11739960_a_at) / Fold change (ACY-1035/veh), VPS36 (ProbeSet 11739960_a_at) / RFU SYPL1 (11715823_x_at) / Fold change /veh SYPL1 (11715823_x_at) / RFU IGFBP7 (11715501_s_at) / Fold change /veh IGFBP7 (11715501_s_at) / RFU REEP3 (11722064_at) / Fold change /veh REEP3 (11722064_at) / RFU IGLL1 (11728026_x_at) / Fold change /veh IGLL1 (11728026_x_at): dose or concentration left out as unconfirmed
Details: ProbeSet 11753616_s_at; LIST B

## Nc1ccc(-c2cccs2)cc1NC(=O)c1ccc2c(c1)cc(C1CC1)n2CCN1CCOCC1 [ACY-1035]
  RFU, ARL8B: 236.78 RFU
